In patent EP1534672B1, “RETINOL DERIVATIVES, THEIR USE IN THE TREATMENT OF CANCER AND FOR POTENTIATING THE EFFICACY OF OTHER CYTOTOXIC AGENTS” (priority 2002, dated 2004):
Like-named read-outs stand apart in the source and are kept apart here. Marks after values point to notes of the source that are not given here.

How the values were obtained:
[1] = system: Human Breast Adenocarcinoma Cell Line MDA-MB-231; test: Drug cytotoxicity testing (viable cell count, trypan blue exclusion, cell growth inhibition); type: cell-based; conditions: for cell growth inhibition reached on increase of the concentration, in (B): dilution in normal saline (B)
Procedure: (§1) MDA-MB-231 cells were propagated in MEM culture medium with 2 mM L-glutamine, 10% heat-inactivated fetal bovine serum (FBS) and antibiotics. DU 145 cells were cultured in MEM culture medium containing 2 mM L-glutamine, 1 mM sodium pyruvate, 10% FBS and antibiotics. SKOV-3 cells were cultured in McCoy's 5A culture medium, supplemented with 1,5 mM L-glutamine, 10% FBS and antibiotics. A549 cells were cultured in Ham's F-12 culture medium with 1 mM L-glutamine, 10% FBS and antibiotics. All media and supplements were purchased from Sigma-Aldrich (St.Louis, MO, USA). Cell propagation of all lines was carried out in Falcon™ 25 cm^2 cultivation flasks (Becton Dickinson Labware).
(§2) Drug cytotoxicity testing was carried out with using Falcon™ 96-well cultivation plates for adherent cells (Becton Dickinson Labware). These plates were seeded by cells either at 12 × 10^3 MDA-MB-231 cells/well, or at 12 × 10^3 DU 145 cells/well, or at 14 × 10^3 SKOV-3 cells/well, or at 10 × 10^3 A549 cells/well in a volume of 200 µL/well.
(§3) The cell cultures in cultivation plates were allowed to adhere for 24 hour of incubation. On day 1 after cell seeding, 2 µL solutions of the drugs to be tested in medium with 5% FBS was added to the cultures. In the control cultures, 2 µL of medium with 5% FBS was added as solvent control. The cells were incubated for 2 consecutive days. At the end of the incubation period adherent cells were detached by trypsinization and the number of viable cells was counted using trypan blue exclusion test and a hemocytometer. All data were derived from an average of three determinations each in six replicates. The results were expressed as mean cell number ± SE and the differences between control and test series evaluated by means of Student's t-test. The drug cytotoxicity was evaluated based on the extent of cell growth inhibition. The cell growth inhibition of the tested drugs was calculated as follows: Cell growth inhibition,% = (Control-TestSeries)/(Control) × 100 [formula]
In the case of comparative evaluation of cytotoxicity of the inventive compounds themselves and the formulation related to consecutive dilutions of their initial solutions before adding to the cultures, 2 µL solutions of the drugs to be tested in medium with 5% FBS, in normal saline and in saline with 2,3 mM CaCl2 were added to the cultures. In control cultures, 2 µL of medium with 5% FBS, normal saline and saline with 2,3 mM CaCl2 were added as solvent controls (negative controls). […] Therefore an average of negative controls was calculated. […] Therefore an average of positive controls was calculated (for each antibiotic).

[2] = system: Human Prostate Carcinoma Cell Line DU 145; test: as above; type: cell-based; conditions: alone or in formulation at molar ratio 1:6
Procedure: as §1, §2, §3

[3] = rat, in vivo, ip; for mortality: 100 mg/kg
Procedure: A single dose i.p. toxicity study in rats was carried out. […] The minimal lethal dose is thus above 100 mg/kg body weight for these compounds.

[4] = cytotoxic drug 10^-8 mol/L, working solutions in medium with 5% FBS
[5] = Homo sapiens, MDA-MB-231, compound alone 10^-7 mol/L, in A (saline with […] CaCl2), read-out: cell growth inhibition
[6] = Homo sapiens, MDA-MB-231, compound alone 10^-7 mol/L, in B (normal saline), read-out: cell growth inhibition
[7] = Homo sapiens, MDA-MB-231, compound alone 10^-7 mol/L, read-out: Cell growth inhibition in A compared to that in B was increased by
[8] = Homo sapiens, MDA-MB-231, compound alone 10^-8 mol/L, in A (saline with […] CaCl2), read-out: cell growth inhibition
[9] = Homo sapiens, MDA-MB-231, compound alone 10^-8 mol/L, in B (normal saline), read-out: cell growth inhibition
[10] = Homo sapiens, MDA-MB-231, compound alone 10^-8 mol/L, read-out: Cell growth inhibition in A compared to that in B was increased by
[11] = Homo sapiens, MDA-MB-231, compound alone 10^-9 mol/L, in A (saline with […] CaCl2), read-out: cell growth inhibition
[12] = Homo sapiens, MDA-MB-231, compound alone 10^-9 mol/L, in B (normal saline), read-out: cell growth inhibition
[13] = Homo sapiens, MDA-MB-231, compound alone 10^-9 mol/L, read-out: Cell growth inhibition in A compared to that in B was increased by
[14] = compound alone 10^-7 mol/L, in B (normal saline)
[15] = compound alone 10^-8 mol/L, in B (normal saline)
[16] = compound alone 10^-9 mol/L, in B (normal saline)
[17] = sodium salt, range 10^-9 to 10^-7 M
[18] = Homo sapiens, MDA-MB-231, 48 h, compound alone, final concentration 10^-7 mol/L, working solutions in MEM with 5% FBS, two days, read-out: cell growth inhibition
[19] = Homo sapiens, MDA-MB-231, 48 h, compound alone, final concentration 10^-8 mol/L, working solutions in MEM with 5% FBS, two days, read-out: cell growth inhibition
[20] = Homo sapiens, MDA-MB-231, 48 h, compound alone, final concentration 10^-9 mol/L, working solutions in MEM with 5% FBS, two days, read-out: cell growth inhibition
[21] = compound alone, final concentration 10^-7 mol/L, working solutions in MEM with 5% FBS, two days
[22] = compound alone, final concentration 10^-8 mol/L, working solutions in MEM with 5% FBS, two days
[23] = compound alone, final concentration 10^-9 mol/L, working solutions in MEM with 5% FBS, two days

SMILES: O=C1c2c(O)ccc(O)c2C(=O)c2c(NCCNCCO)ccc(NCCNCCO)c21 [Mitoxantrone, mitoxantrone]
- IC50 ([1]; Homo sapiens, MDA-MB-231, as concentration of cytotoxic drug, alone or in formulation at molar ratio 1:6, medium with 5% FBS, calculated from three concentrations, read-out: IC50 mol/L (a)): 5 nM
- inhibition at 0.1 µM ([1]; Homo sapiens, MDA-MB-231, cytotoxic drug 10^-7 mol/L (100 nM), alone or in formulation at molar ratio 1:6, working solutions in medium with 5% FBS, read-out: Cell Growth Inhibition, %): 58.8%
- inhibition at 0.01 µM ([1]; Homo sapiens, MDA-MB-231, cytotoxic drug 10^-8 mol/L, alone or in formulation at molar ratio 1:6, working solutions in medium with 5% FBS, read-out: Cell Growth Inhibition, %): 52.6%
- inhibition at 0.001 µM ([1]; Homo sapiens, MDA-MB-231, cytotoxic drug 10^-9 mol/L, alone or in formulation at molar ratio 1:6, working solutions in medium with 5% FBS, read-out: Cell Growth Inhibition, %): 43.6%
- Tumor Cell Number, × 10^3 ([1]; cytotoxic drug 10^-7 mol/L (100 nM), alone or in formulation at molar ratio 1:6, working solutions in medium with 5% FBS): 22.5 ± 1.63 × 10^3
- Cell Growth Inhibition, % ([1]; cytotoxic drug 10^-7 mol/L (100 nM), alone or in formulation at molar ratio 1:6, working solutions in medium with 5% FBS, 0.1 µM): 61.1* %
- Tumor Cell Number, × 10^3 ([1]; cytotoxic drug 10^-7 mol/L (100 nM), alone or in formulation at molar ratio 1:6, working solutions in medium with 5% FBS, listed as mitoxantrone): 22.9 ± 1.49 × 10^3
- Tumor Cell Number, × 10^3 ([1]; cytotoxic drug 10^-8 mol/L, alone or in formulation at molar ratio 1:6, working solutions in medium with 5% FBS): 27.4 ± 1.90 × 10^3
- Tumor Cell Number, × 10^3 ([1]; cytotoxic drug 10^-9 mol/L, alone or in formulation at molar ratio 1:6, working solutions in medium with 5% FBS): 32.6 ± 1.99 × 10^3
- inhibition at 0.1 µM ([2]; Homo sapiens, DU-145, cytotoxic drug 10^-7 mol/L (100 nM), working solutions in medium with 5% FBS): 60.2%
- inhibition at 0.01 µM ([2]; Homo sapiens, DU-145, cytotoxic drug 10^-8 mol/L, working solutions in medium with 5% FBS): 39.1%
- inhibition at 0.001 µM ([2]; Homo sapiens, DU-145, cytotoxic drug 10^-9 mol/L, working solutions in medium with 5% FBS): 19.1%
- IC50 ([2]; Homo sapiens, DU-145, as concentration of cytotoxic drug, medium with 5% FBS, calculated from three concentrations, read-out: IC50 mol/L (a)): 32 nM
- Tumor Cell Number, × 10^3 ([2]; cytotoxic drug 10^-7 mol/L (100 nM), working solutions in medium with 5% FBS): 23.1 ± 1.34 × 10^3
- Cell Growth Inhibition, % ([2]; cytotoxic drug 10^-7 mol/L (100 nM), working solutions in medium with 5% FBS, 0.1 µM): 59.8* %
- Tumor Cell Number, × 10^3 ([2]; cytotoxic drug 10^-7 mol/L (100 nM), working solutions in medium with 5% FBS, listed as mitoxantrone): 19.2 ± 1.16 × 10^3
- Cell Growth Inhibition, % [2, 4]: 39.1 * %
- Tumor Cell Number, × 10^3 [2, 4]: 35.0 ± 1.70 × 10^3
- Tumor Cell Number, × 10^3 ([2]; cytotoxic drug 10^-9 mol/L, working solutions in medium with 5% FBS): 46.5 ± 2.32 × 10^3

SMILES: CC1=C(/C=C/C(C)=C/C=C/C(C)=C/C(=O)N[C@@H](CS(=O)(=O)O)C(=O)O)C(C)(C)CCC1 [compound I-1, N-(all-trans-Retinoyl)-L-cysteic acid]
- inhibition at 0.1 µM [1, 5]: 41.5%
- inhibition at 0.1 µM [1, 6]: 31.3%
- inhibition at 0.1 µM [1, 7]: 14.8%
- inhibition at 0.01 µM [1, 8]: 40.2%
- inhibition at 0.01 µM [1, 9]: 29.7%
- inhibition at 0.01 µM [1, 10]: 15%
- inhibition at 0.001 µM [1, 11]: 36.9%
- inhibition at 0.001 µM [1, 12]: 24.8%
- inhibition at 0.001 µM [1, 13]: 16.1%
- number of viable cells [1, 14]: 39.1 ± 1.41 × 10^3
- number of viable cells [1, 15]: 40.0 ± 1.35 × 10^3
- number of viable cells [1, 16]: 42.8 ± 1.56 × 10^3
- cell growth inhibition reached on increase of the concentration, in (B) [1, 17]: ~31%
- minimal lethal dose [3]: above 100 mg/kg body weight

SMILES: COC(=O)[C@H](CS(=O)(=O)O)NC(=O)/C=C(C)/C=C/C=C(C)/C=C/C1=C(C)CCCC1(C)C [compound I-1a, N-(all-trans-retinoyl)-L-cysteic acid methyl ester]
- inhibition at 0.1 µM [1, 18]: 47.9%
- inhibition at 0.01 µM [1, 19]: 45.6%
- inhibition at 0.001 µM [1, 20]: 40%
- number of viable cells [1, 21]: 29.8 ± 2.44 × 10^3
- number of viable cells [1, 22]: 31.1 ± 1.90 × 10^3
- number of viable cells [1, 23]: 34.3 ± 2.27 × 10^3
- minimal lethal dose [3]: above 100 mg/kg body weight
- mortality [3]: did not produce mortality

SMILES: CC1=C(/C=C/C(C)=C/C=C/C(C)=C/C(=O)N[C@@H](CS(=O)(=O)O)C(N)=O)C(C)(C)CCC1 [compound I-1f, N-(all-trans-retinoyl)-L-cysteic acid amide]
- inhibition at 0.1 µM [1, 18]: 52.5%
- inhibition at 0.01 µM [1, 19]: 48.6%
- inhibition at 0.001 µM [1, 20]: 44.8%
- inhibition at 0.1 µM [1, 5]: 53.3%
- inhibition at 0.1 µM [1, 6]: 44.9%
- inhibition at 0.1 µM [1, 7]: 15.2%
- inhibition at 0.01 µM [1, 8]: 46.3%
- inhibition at 0.01 µM [1, 9]: 36.1%
- inhibition at 0.01 µM [1, 10]: 16.1%
- inhibition at 0.001 µM [1, 11]: 38.6%
- inhibition at 0.001 µM [1, 12]: 25.8%
- inhibition at 0.001 µM [1, 13]: 17.1%
- number of viable cells [1, 14]: 31.6 ± 0.89 × 10^3
- number of viable cells [1, 15]: 36.7 ± 0.75 × 10^3
- number of viable cells [1, 16]: 42.6 ± 0.80 × 10^3
- number of viable cells [1, 21]: 25.3 ± 1.11 × 10^3
- number of viable cells [1, 22]: 27.4 ± 1.42 × 10^3
- number of viable cells [1, 23]: 29.4 ± 2.15 × 10^3
- cell growth inhibition in (A) compared to compound in B [1, 17]: ~15%
- cell growth inhibition reached on increase of the concentration, in (B) [1, 17]: ~45%
- minimal lethal dose [3]: above 100 mg/kg body weight
- mortality [3]: did not produce mortality
